The text below walks through data of patent US10626107B2, “Crystal form, salt type of substituted 2-hydro-pyrazole derivative and preparation method therefor” (CHIA TAI TIANQING PHARMACEUTICAL GROUP CO., LTD., priority 2016, dated 2020).

For series [1], the system named is MDA-MB-436 cells. Description: Inhibition assay of the compound of formula (I) on the proliferation of MDA-MB-436 cells (CellTiter-Glo). Type of series: cell-based. As to conditions: Homo sapiens, 144 h, 6 days. As to the method:
(§1) RPMI 1640 medium, fetal bovine serum and penicillin/streptomycin as antibiotics were purchased from Promega (Madison, Wis.). The MCF-7 cell line and the MDA-MB-436 cell line were purchased from the European Collection of Authenticated Cell Cultures (ECACC). Envision Multilabel Plate Reader (PerkinElmer).
MDA-MB-436 cells were seeded in a black 384-well plate with 45 μL of cell suspension (containing 585 MDA-MB-436 cells) per well. The cell plate was placed in a carbon dioxide incubator for overnight culture.
(§2) The test compounds were diluted 3 times to the 10th concentration with Bravo, i.e., diluted from 10 μM to 0.508 nM, and a duplicate-well experiment was set. The medium was added to the middle plate in an amount of 49 μL per well. The gradient-diluted compounds were transferred in an amount of 1 μL per well to the middle plate according to the corresponding positions, and the mixture was mixed evenly and transferred to the cell plate in an amount of 5 μL per well. The cell plate was incubated in a carbon dioxide incubator for 6 days.
(§3) Promega CellTiter-Glo reagent was added to the cell plate in an amount of 25 μL per well, and incubated for 10 minutes at room temperature to stabilize the luminescence signal. Reading was performed using a PerkinElmer Envision Multilabel Plate Reader.
On the technique in general: In ATP-based viability assays light output follows the ATP content of the culture.

The nature of series [2]: Solubility tests in different vehicles (HPLC). The format is physicochemical. The conditions noted are these: 26 °C, thermodynamic from solid, room temperature 25 to 27° C. The protocol: Samples (about 2 mg) (if the sample was a salt, the required amount of the salt was calculated according to the salt factor in accordance with the criterion that the compound of formula (I) was 2 mg) were weighed respectively and added to a 1.5 mL glass vial. Different vehicles (1 mL) were then added respectively. The above-mentioned suspension was placed on a magnetic stirrer for stirring (room temperature 25 to 27° C.). After stirring for 24 hours, samples were taken. The samples were first centrifuged, and the supernatants were taken. After appropriate dilution according to the situation of the dissolution, the concentrations were determined by HPLC. The results were as follows:
Notes: • FaSSIF: to simulate the intestinal fluid in the small intestine of human in a hunger state before meal; • FeSSIF: to simulate the intestinal fluid in the small intestine of human in a full state after meal; • SGF: to simulate the gastric juice in the empty stomach of human in a hunger state

The test system of series [3] is MCF-7 cells. As to the kind of experiment: Inhibition assay of the compound of formula (I) on the proliferation of MCF-7 cells (CellTiter-Glo). The format is cell-based. The conditions noted are these: Homo sapiens, MCF7, 144 h, 6 days. As to the method: as §1
(§4) MCF-7 cells were seeded in a black 384-well plate with 45 μL of cell suspension (containing 200 MCF-7 cells) per well. The cell plate was placed in a carbon dioxide incubator for overnight culture.
as §2, §3

Series [4] relates to human breast cancer MCF-7 subcutaneous xenograft tumor. The format is in vivo. From the text: Cell line-derived xenograft (CDX) BALB/c nude mice that were female, 6- to 8-week old, weighed 20 g, and subcutaneously implanted with human tumor cell line derived from MCF-7 breast cancer patients were used. A total of 150 mice were needed, which were purchased from Beijing Vital River Laboratory Animal Technology Co., Ltd.
BALB/c nude mice that were female, 6- to 8-week old, and weighed approximately 20 g were used. The mice were maintained in separate ventilated cages (10 mice per cage) in a special pathogen-free environment. All the cages, bedding and water were disinfected prior to use. All the animals were free to access a standard certified commercial laboratory diet. A total of 150 mice were purchased from Beijing Vital River Laboratory Animal Technology Co., Ltd. for research. Each mouse was implanted subcutaneously with an estrogen tablets (0.18 mg/tablet, 60-day sustained release) in the left back. After 3 days, each mouse was implanted with tumor cells (10×10^6 in 0.2 mL of phosphate buffer) subcutaneously in the right back for tumor growth. Administration was started when the average tumor volume reached about 150 to 200 mm^3. The test compounds were orally administered daily, and the administration dosages were as shown in the above table. The tumor volumes were measured twice a week using a two-dimensional caliper. The volumes were expressed in cubic millimeters and calculated by the following formula: V=0.5 a×b^2, wherein a and b were the long diameter and short diameter of a tumor, respectively. The anti-tumor efficacy was determined by dividing the average increase of the tumor volumes of the animals treated with a compound by the average increase of the tumor volumes of the animals without being treated with the compound.

For series [5], the system named is MCF-7 breast cancer cells. Description: Inhibition assay of the A crystal form of WX_1 on MCF-7 breast cancer cell proliferation (CellTiter-Glo). The format is cell-based. As to conditions: Homo sapiens, MCF7, 144 h; MCF-7 cells, 6 days. As to the method: RPMI 1640 medium, fetal bovine serum and penicillin/streptomycin as antibiotics were purchased from Promega (Madison, Wis.). The MCF-7 cell line was purchased from the European Collection of Authenticated Cell Cultures (ECACC). Envision MultiLabel Plate Reader (PerkinElmer).
as §4, §2
Promega CellTiter-Glo reagent was added to the cell plate in an amount of […] per well, and incubated for 10 minutes at room temperature to stabilize the luminescence signal. Reading was performed using a PerkinElmer Envision Multilabel Plate Reader.

Series [6] relates to human lung cancer LU-01-0393 subcutaneous xenograft tumor. Description: In vivo drug efficacy study (II): human lung cancer LU-01-0393 subcutaneous xenograft tumor model. Set-up: species or system BALB/c nude mice. The conditions noted are these: 120.0 mg/kg PO QD × 3W. The source says:
Cell line-derived xenograft (CDX) BALB/c nude mice that were female, 6- to 8-week old, weighed 17 to 20 g, and subcutaneously implanted with human tumor cell line derived from LU-01-0393 lung cancer patient were used. A total of 72 mice were needed and were purchased from Shanghai Xipuer-Bikai Experimental Animal Co., Ltd. Human lung cancer LU-01-0393 tumor (i.e., non-small cell lung cancer) was originally derived from a clinical sample of a surgical resection. It was defined as passage PO after being inoculated to nude mice, and the tumor of passage PO was re-inoculated to nude mice and was then defined as passage P1, and so forth. Passage was performed in nude mice. LU-01-0393-FP5 was obtained from the transplantation after the recovery of P4. This study would use the tumor tissue of passage FP6.
BALB/c nude mice that were female, 6- to 8-week old, and weighed approximately 17 to 20 g were used. The mice were maintained in separate ventilated cages in a special pathogen-free environment. All the cages, bedding and water were disinfected prior to use. All the animals were free to access a standard certified commercial laboratory diet. A total of 72 mice purchased from Shanghai Xipuer-Bikai Experimental Animal Co., Ltd. were used for the study. The LU-01-0393 FP6 tumor tissue was cut to 20 to 30 mm^3 and inoculated to the right back of each mouse to wait for the tumor growth. When the average tumor volume reached about 171 mm^3, the mice were randomized into groups and administered. The test compounds were orally administered daily, and the administration dosages were as shown in the above table. The tumor diameters were measured twice a week using a two-dimensional caliper. The tumor volumes were calculated by the following formula: V=0.5 a×b^2, wherein a and b were the long diameter and the short diameter of a tumor, respectively. The anti-tumor efficacy was determined by dividing the average increase of the tumor volumes of the animals treated with a compound by the average increase of the tumor volumes of the animals without being treated with the compound.
For orientation: In xenograft studies the graft and the host belong to different species.

Read-outs that look alike come from different tables or passages of the source. Bounds are passed on as bounds.

In general, IC50 refers to the midpoint of a concentration-inhibition curve. Broadly, the solubility is the dissolved amount per volume that the medium holds. As to `CC(C)c1c2cc(-c3nc(Nc4ccc(N5CCNCC5)cn4)ncc3F)ccc2nn1C` [compound of formula (I)], the IC50 in series [1] was found to be 328 nM; in series [3] it was 32.1 nM. For the same molecule, the solubility at 24 h in series [2] (simulated gastric fluid, SGF, read-out: Solubility SGF) was more than 2000 µg/mL; in series [2] (FaSSIF, read-out: Solubility FaSSIF) it was 13 µg/mL; in series [2] (FeSSIF, read-out: Solubility FeSSIF), 1600 µg/mL; in series [2] (water, water, H2O, read-out: Solubility H2O) it was 10 µg/mL.
`CC(=O)c1c(C)c2cnc(Nc3ccc(N4CCNCC4)cn3)nc2n(C2CCCC2)c1=O` [Palbociclib]: in series [4] (25.0 mg/kg PO QD × 3W), the “Tumor volume Day 0” value turned out to be 153 mm^3, the “Tumor volume Day 7” value is 203 mm^3, the “Tumor volume Day 14” value worked out at 252 mm^3 and the “Tumor volume Day 20” value is on record as 222 mm^3. Further, in series [4] (50.0 mg/kg PO QD × 3W), the “Tumor volume Day 0” value was 153 mm^3, the “Tumor volume Day 7” value was 180 mm^3, the “Tumor volume Day 14” value is 197 mm^3 and the “Tumor volume Day 20” value is listed as 137 mm^3. Further, in series [4] (mouse, in vivo), the tolerability result is listed as “intolerable”. The molecule also registered an IC50 in series [5] of 88.2 nM. For the same molecule, in series [6], the “Tumor volume Day 0” value was found to be 170 ± 24 mm^3, the “Tumor volume Day 7” value turned out to be 261 ± 38 mm^3, the “Tumor volume Day 14” value was determined as 266 ± 41 mm^3 and the “Tumor volume Day 21” value amounted to 251 ± 34 mm^3.
As for `CCN1CCN(Cc2ccc(Nc3ncc(F)c(-c4cc(F)c5nc(C)n(C(C)C)c5c4)n3)nc2)CC1` [LY2835219, Abemaciclib], in series [4] (25.0 mg/kg PO QD × 3W), the “Tumor volume Day 0” value came out at 153 mm^3 and the “Tumor volume Day 7” value stood at 155 mm^3. This molecule registered an IC50 in series [5] of 185 nM. For the same molecule, in series [6], the “Tumor volume Day 0” value amounted to 172 ± 23 mm^3, the “Tumor volume Day 7” value is on record as 228 ± 26 mm^3, the “Tumor volume Day 14” value worked out at 255 ± 30 mm^3 and the “Tumor volume Day 21” value was found to be 272 ± 36 mm^3.
On to `CCN1CCN(Cc2ccc(Nc3ncc(F)c(-c4ccc5nn(C)c(C(C)C)c5c4)n3)nc2)CC1` [compound of formula (a), reference compound], for which the IC50 stood at 2100 nM in series [1] and 240 nM in series [3].
